Assay: Electrophysiological Assay: Current record was obtained by an automated patch clamp system IonWorks Quattro (Molecular Devices Corporation) in Population Patch Clamp mode. The operation was conducted in accordance with the operating procedure of the system. A Dulbecco's phosphate buffer containing calcium and magnesium (Sigma) was used as an extracellular fluid, and a low Cl-buffer (100 mM K-gluconate, 40 mM KCl, 3.2 mM MgCl2, 5 mM EGTA, 5 mM Hepes, pH 7.3) was used as an intracellular fluid. A test compound was dissolved in dimethylsulfoxide (DMSO) to prepare a 30 mM stock solution, so as to produce 4-fold serial dilutions with the extracellular fluid for attaining a DMSO concentration of 0.3% in measurement.The hNav 1.7/β1/β2 cells cultured to a 70-80% confluent state in a T150 flask (Sumilon) were washed with PBS and subsequently with versene (Invitrogen Corp.), and collected by allowing to react with 0.05% trypsin (Invitrogen Corp.) at 37° C. for 3 minutes. After washing with a culture medium, the resultant cells were suspended in an extracellular fluid at a concentration of […] so as to be used for the measurement. The cell membrane was perforated by using an intracellular fluid including 100 ug/ml amphotericin B (Sigma). Current response was obtained at a sampling frequency of 10 kHz. […]
Assay type: cell-based

IC50: 100 nM
Compound: Cc1c(O[C@H]2CCCC[C@@H]2c2c[nH]nc2N)ccc(S(=O)(=O)Nc2ccncn2)c1F

From ChEMBL document CHEMBL5725201, “Cycloalkane derivatives” (2016)
